From article PMC10833105 (Journal of medicinal chemistry, 2023)
pIC50: −log10 of the molar value. Like-named read-outs stand apart in the source and are kept apart here.

Tests used:
GABAAR [1] = conditions: 3H-flunitrazepam, rat brain extract; for pIC50: read-out: GABAAR binding IC50
in vitro = conditions: PAMPA, pH 7.4
female A/J mice = assay: Methacholine-induced airway hyperresponsiveness, double chamber plethysmograph; type: in vivo, mouse; conditions: nebulized 7.2 mg/kg, then five nebulized methacholine challenges, vs vehicle
[2] = test system: guinea pig airway smooth muscle; assay: Ex vivo airway smooth muscle relaxation, substance P-contracted tracheal rings; conditions: 25 μM, vs vehicle
GABAAR [3] = conditions: read-out: GABAAR binding IC50; reported earlier; cited from earlier work
[4] = test system: female Swiss Webster mice; conditions: oral dosing up to 1000 mg/kg; cited from earlier work
[5] = cited from earlier work
[6] = Metabolic stability phase 2; type: in vitro ADME; conditions: human liver S9, UDP-glucuronic acid, 10 μM compound
[7] = Microsomal stability phase 1; type: in vitro ADME; conditions: mouse liver S9, NADPH, 10 μM compound
[8] = Metabolic stability phase 2; type: in vitro ADME; conditions: mouse liver S9, UDP-glucuronic acid, 10 μM compound
[9] = Microsomal stability phase 1; type: in vitro ADME; conditions: human liver S9, NADPH, 10 μM compound
[10] = test system: female Swiss Webster mice; assay: Rotarod sensorimotor inhibition; type: in vivo, mouse; conditions: diazepam 8 mg/kg

SMILES | pIC50 (GABAAR [1]) | Papp (in vitro) [×10⁻⁶ cm/s] | GABAAR binding (in words) (GABAAR [1]) | further results
CC1(C)N=C(c2ccccc2F)c2cc(Br)ccc2NC1=O [3a, 7-Bromo-5-(2-fluorophenyl)-3,3-dimethyl-1,3-dihydro-2H-benzo[e][1,4]diazepin-2-one] | 5.90 | – | – | –
O=C1Nc2ccc(Br)cc2C(c2ccccc2F)=NC12CC2 [3c] | 7.38 | – | – | –
O=C1Nc2ccc(Br)cc2C(c2ccccc2F)=NC12CCC2 [3d] | 5.69 | 3.16 | – | –
O=C1Nc2ccc(Br)cc2C(c2ccccc2F)=NC12CCCC2 [3e] | – | 0.158 | no significant binding | –
O=C1Nc2ccc(Br)cc2C(c2ccccc2F)=NC12CCCCC2 [3f] | – | 0.0794 | no significant binding | –
O=C1Nc2ccc(Cl)cc2C(c2ccccc2F)=NC12CC2 [3g] | 6.18 | – | – | –
CCOC(=O)c1ncn2c1C(C)(C)N=C(c1ccccc1F)c1cc(Br)ccc1-2 [4a] | 6.13 | – | Some activity was retained | –
CCOC(=O)c1ncn2c1C1(CC1)N=C(c1ccccc1F)c1cc(Br)ccc1-2 [4c, Ethyl 8-bromo-6-(2-fluorophenyl)spiro[benzo[f]imidazo[1,5-α][1,4]diazepine-4,1′-cyclopropane]-3-carboxylate] | 7.06 | – | – | –
CCOC(=O)c1ncn2c1C1(CCC1)N=C(c1ccccc1F)c1cc(Br)ccc1-2 [4d] | 6.07 | 6.31 | Some activity was retained | –
CCOC(=O)c1ncn2c1C1(CCCC1)N=C(c1ccccc1F)c1cc(Br)ccc1-2 [4e] | – | 1.58 | not active | –
CCOC(=O)c1ncn2c1C1(CCCCC1)N=C(c1ccccc1F)c1cc(Br)ccc1-2 [4f] | 5.21 | 1 | not active | –
CCOC(=O)c1ncn2c1C1(CC1)N=C(c1ccccc1F)c1cc(Cl)ccc1-2 [4g] | – | 2.51 | weak GABAAR ligands | –
CCOC(=O)c1ncn2c1C1(CC1)N=C(c1ccccc1F)c1cc(C3CC3)ccc1-2 [4i, Ethyl 8-Cyclopropyl-6-(2-fluorophenyl)spiro-[benzo[f]imidazo[1,5-α][1,4]diazepine-4,1′-cyclopropane]-3-carboxylate] | – | 12.6 | – | –
CC1(C)N=C(c2ccccc2F)c2cc(Br)ccc2-n2cnc(C(=O)O)c21 [5a] | 5.39 | – | did not show strong GABAAR binding | effect on specific airway resistance (sRaw) (female A/J mice): little to no change of sRaw values
O=C(O)c1ncn2c1C1(CC1)N=C(c1ccccc1F)c1cc(Br)ccc1-2 [5c, 8-Bromo-6-(2-fluorophenyl)-spiro[benzo[f]imidazo[1,5-α][1,4]diazepine-4,1′-cyclopropane]-3-carboxylic Acid] | 8.05 | – | – | relaxation of constricted airway smooth muscle ([2]; at 30 min): significant relaxation
O=C(O)c1ncn2c1C1(CCC1)N=C(c1ccccc1F)c1cc(Br)ccc1-2 [5d] | 5.74 | – | – | relaxation of constricted airway smooth muscle ([2]; at 60 min): weak airway smooth muscle relaxation
O=C(O)c1ncn2c1C1(CCCCC1)N=C(c1ccccc1F)c1cc(Br)ccc1-2 [5f] | – | – | – | relaxation of constricted airway smooth muscle ([2]; at 30 min): significant relaxation
O=C(O)c1ncn2c1C1(CC1)N=C(c1ccccc1F)c1cc(Cl)ccc1-2 [5g] | – | – | weak GABAAR ligands | –
C#Cc1ccc2c(c1)C(c1ccccc1F)=NC1(CC1)c1c(C(=O)O)ncn1-2 [5h, 8-Ethynyl-6-(2-fluorophenyl)spiro[benzo[f]-imidazo[1,5-α][1,4]diazepine-4,1′-cyclopropane]-3-carboxylic Acid] | 7.23 | – | – | relaxation of constricted airway smooth muscle ([2]; at 30 min): significant relaxation
O=C(O)c1ncn2c1C1(CC1)N=C(c1ccccc1F)c1cc(C3CC3)ccc1-2 [5i] | 5.74 | – | weak GABAAR ligands | –
O=C(O)c1ncn2c1C1(CC1)N=C(c1ccccc1F)c1ccccc1-2 [5j, 6-(2-Fluorophenyl)spiro[benzo[f]imidazo[1,5-α][1,4]diazepine-4,1′-cyclopropane]-3-carboxylic Acid] | 6.54 | – | – | relaxation of constricted airway smooth muscle ([2]; at 30 min): significant relaxation
C[C@@H]1N=C(c2ccccc2F)c2cc(Br)ccc2-n2cnc(C(=O)O)c21 [MIDD0301S] | – | – | – | pIC50 (GABAAR [3]): 7.60
C[C@H]1N=C(c2ccccc2F)c2cc(Br)ccc2-n2cnc(C(=O)O)c21 [MIDD0301] | – | – | – | sensorimotor inhibition on rotarod [4]: absence of sensorimotor inhibition; aqueous solubility (in words) ([5]; pH values between 3 and 6): significantly decreased; aqueous solubility (in words) ([5]; strong acidic, neutral and basic conditions): excellent solubility; remaining percentage of parent compound after 2 h, phase 2 [6]: 77 ± 3%; remaining percentage of parent compound after 2 h, phase 1 [7]: 110 ± 14%; remaining percentage of parent compound after 2 h, phase 2 [8]: 73 ± 8%; pIC50 (GABAAR [3]): 7.59; remaining percentage of parent compound after 2 h, phase 1 [9]: 98 ± 4%
CN1C(=O)CN=C(c2ccccc2)c2cc(Cl)ccc21 [diazepam] | – | – | – | sensorimotor inhibition on rotarod [10]: rapid and significant loss of sensorimotor coordination
